In one assay the target is human RBP4 (Homo sapiens (Human), UniProt P02753). Nature of the assay: Binding assay by Retinol-RBP4-TTR ELISA. To be noted: for IC50: retinol 50 nM, His-tagged human RBP4, biotinylated human TTR, read-out: human RBP4 binding inhibitory activity (IC50 nM); for inhibition at 10 µM: at 10 μM compound, read-out: human RBP4 binding inhibitory activity(% at 10 μM). On the procedure: The action of the compound of the present invention to inhibit binding of RBP4 and retinol and TTR was evaluated using the Retinol-RBP4-TTR ELISA system shown below.
1F: Binding Assay by Retinol-RBP4-TTR ELISA
This ELISA system detects a complex of RBP4 and TTR based on a retinol-dependent binding of RBP4 to TTR.
His-tagged human RBP4 used was prepared in the above-mentioned 1C.
Biotinylate human TTR used was prepared in the above-mentioned 1E.
Streptavidin (20 μl) (10 μg/ml Streptavidin type II (Wako Pure Chemical Industries, Ltd.), 10 mM Tris-HCl (pH 7.5), 10 mM NaCl) was added to a 384 well black plate (Nunc MaxiSorp, Thermo Fisher Scientific Inc.), and the plate was subjected to centrifugation (1000 rpm, 1 min) and coated overnight at 4° C. The plate was washed twice with PBST (PBS, 0.05% Tween 20, 100 μl/well) and blocked with 25% Block Ace (Snow Brand Milk Products Co., Ltd., PBS, 100 μl/well). The plate was subjected to centrifugation (1000 rpm, 1 min) and incubated at room temperature for 4 hr or overnight at 4° C. The plate was washed twice with PBST (PBS, 0.05% Tween 20, 100 μl/well), and biotinylate human TTR (stock solution concentration 1.0 mg/ml) diluted 750-fold with PBST was added at 20 μl/well. The plate was subjected to centrifugation (1000 rpm, 1 min) and stood still at room temperature for 1.5 hr or overnight at 4° C. The plate was washed 3 times with PBST (100 μl/well), and His-tagged human RBP4 (stock solution concentration 0.96 mg/ml) diluted 4000-fold with a reaction buffer (50 mM Tris-HCl, 150 mM NaCl, 0.005% Tween 20, 1 mM DTT, 0.1% BSA) was added at 10 μl/well. The dilution series (8 doses from 10 mM, 200-fold concentration) of the compound was prepared with DMSO, and 1 μl of each was added to a reaction buffer (200 μl) containing retinol (50 nM) (Sigma-Aldrich Co.). A reaction buffer (200 μl) containing retinol and added with DMSO was used as a positive control, and reaction buffer (200 μl) free of retinol and added with DMSO was used as a negative control. Mixed solutions of retinol and the compound were added to the plate at 15 μl/well. The plate was stirred in a platemixer subjected to centrifugation (1000 rpm, 1 min) and reacted at room temperature for 2 hr. A 35% Block Ace solution diluted with the reaction buffer was added at 10 μl/well, centrifuged (1000 rpm, 1 min) and reacted at room temperature for 30 min. The plate was washed 3 times with PBST (100 μl/well) and SuperSignal ELISA Femto Maximum Sensitivity Substrate reagent (PIERCE, Thermo Fisher Scientific Inc.) was added at 30 μl/well, and the luminescence was measured by a platereader (Wallac).
The binding inhibitory activity of the compound was determined by 100×(positive control value-test compound value)/(positive control value-negative control value). The binding activity (IC50) was calculated from the binding inhibitory rate at each compound concentration using a graph drawing software, GraphPad Prism (GraphPad Software Inc.).
(In general: ELISA stands for enzyme-linked immunosorbent assay.)

In assay [1] the target is RBP4 (Rattus norvegicus (Rat), UniProt P04916). Nature of the assay: Single administration test in Wistar fatty rats, plasma RBP4 by ELISA. Format: in vivo. Conditions: male Wistar fatty rats, 10 mg/kg oral single dose, mean±SD; for RBP4 (% of initial/Control) 0 hr: 0 hr (just before the administration); for RBP4 (% of initial/Control) 4 hr: 4 hr after administration; for RBP4 (% of initial/Control) 7 hr: 7 hr after administration; for RBP4 (% of initial/Control) 24 hr: 24 hr after administration. As to the method: The action of the compounds of the present invention to lower plasma RBP4 level was evaluated using the animal model shown below.
Male Wistar fatty rats (fa/fa) were bred in Takeda Pharmaceutical Company Limited and maintained on normal diet (CE2, CLAE Japan, Inc.) and tap water. Animals were housed in a temperature-controlled room adjusted to a 12-hour light/12-hour dark cycle beginning at 7:00 and 19:00, respectively. All procedures were conducted according to the experimental animal care use committee of Takeda Pharmaceutical Company.
(§1) Male 13-43-week-old Wistar fatty rats were divided into groups randomly. Compounds were suspended in 0.5% (w/v) methylcellulose in water and given orally to Wistar fatty rats at a dose of 10 mg/10 mL/kg of body weight (3-5 rats per group). Blood samples were obtained from tail vein with sodium heparin as an anticoagulant at time 0 hr (just before the administration), 4 hr, 7 hr, and 24 hr after the administration, followed by plasma separation by centrifugation. Plasma RBP4 levels were measured by enzyme-linked immunosorbent assay described in the following section.
(§2) Plasma samples were analyzed in duplicate for RBP4 by an enzyme-linked immunosorbent assay. Mouse recombinant RBP4 (Takeda Pharmaceutical Company Limited) was used as standards, and the assay range was 0.313-20 ng/ml. Samples were diluted 10,000-fold with phosphate-buffered saline (PBS) (Sigma) containing 10% (w/v) BlockAce (Dainippon Sumitomo Pharma Co., Ltd). Rabbit anti-RBP4 polyclonal antibody (100 μL/well of 50 μg/mL, Hokudo Co, Ltd) was incubated in a 96-well plate (Nalge Nunc International K.K.) for overnight at 4° C. Subsequently, the plates were washed with PBS-T (Wako Pure Chemical Industries, Ltd.) and blocked with PBS containing 25% BlockAce for 1 hr at room temperature. After another washing with PBS-T, samples and standards were applied to the well, and the plates were incubated for 2 hr at room temperature. After a washing the wells, peroxidase-labeled (Dojindo Laboratories) anti-RBP4 (100 μL/well) was added to the wells, and then the plates were incubated for 1 hr at room temperature. After a final washing with PBS-T, substrate solution 3,3,5,5-tetramethylbenzidine (Sigma) was added to the wells, and the plates were placed in the dark for 5-20 min at room temperature. The reaction was stopped with 0.5 M sulphuric acid and the optical density was measured with a spectrophotometer at 450 nm. The changes in plasma RBP4 levels were expressed as % of initial/Control. All data are presented as mean±SD.

Assay [2] addresses RBP4 (Mus musculus (Mouse), UniProt Q00724). Nature of the assay: Single administration test in mice, plasma RBP4 by ELISA. Format: in vivo. To be noted: male C57BL/6J or ICR mice, 50 mg/kg oral single dose, mean±SD; for RBP4 (% of initial/Control) 0 hr: 0 hr (just before the administration); for RBP4 (% of initial/Control) 4 hr: 4 hr after administration; for RBP4 (% of initial/Control) 7 hr: 7 hr after administration; for RBP4 (% of initial/Control) 24 hr: 24 hr after administration. As to the method: The action of the compounds of the present invention to reduce plasma RBP4 level was evaluated using the animal model shown below.
Male C57BL/6J and ICR mice were purchased from Charles River (Japan) and maintained on a normal diet (CE2, CLAE Japan, Inc.) and tap water. Animals were housed in a temperature-controlled room adjusted to a 12-hour light/12-hour dark cycle beginning at 7:00 and 19:00, respectively. All procedures were conducted according to the experimental animal care use committee of Takeda Pharmaceutical Company.
as §1, with “Male 6-12-week-old C57BL/6J or ICR mice were housed individually and fed CE2 for 4-6 days. After acclimatization, mice” for “Male 13-43-week-old Wistar fatty rats”, “groups based on their body weight.” for “groups randomly.”, “to mice” for “to Wistar fatty rats”, “of 50” for “of 10”, “weight (three to five mice” for “weight (3-5 rats”, “from orbital” for “from tail”
as §2, with “Company)” for “Company Limited)”

The structures appear in SMILES notation.

As usually defined, the IC50 is the concentration that inhibits the measured activity by half. With `CC(C)(C)c1ccccc1N1CCN(C(=O)CCC(=O)NS(C)(=O)=O)CC1` [Example 55, 4-(4-(2-tert-Butylphenyl)piperazin-1-yl)-N-(methylsulfonyl)-4-oxobutanamide], the IC50 on human RBP4 was found to be 64 nM. At RBP4 [1], the “RBP4 (% of initial/Control) 0 hr” value is given as 100.0 ± 5.3 % of initial/Control, the “RBP4 (% of initial/Control) 4 hr” value is given as 36.8 ± 5.8 % of initial/Control, the “RBP4 (% of initial/Control) 7 hr” value is given as 31.6 ± 7.7 % of initial/Control and the “RBP4 (% of initial/Control) 24 hr” value is reported as 54.4 ± 14.3 % of initial/Control.
On to `CC(C)(C)c1cc(Cl)ccc1N1CCN(C(=O)C(=O)O)CC1` [Example 180, [4-(2-tert-Butyl-4-chlorophenyl)piperazin-1-yl](oxo)acetic acid], for which the inhibition at 10 µM on human RBP4 stood at 100%. At RBP4 [2], the “RBP4 (% of initial/Control) 0 hr” value is listed as 100.0 ± 23.0 % of initial/Control, the “RBP4 (% of initial/Control) 4 hr” value is 63.0 ± 2.0 % of initial/Control, the “RBP4 (% of initial/Control) 7 hr” value is 61.0 ± 2.2 % of initial/Control and the “RBP4 (% of initial/Control) 24 hr” value is listed as 93.0 ± 9.6 % of initial/Control.
On to `CC(C)(C)c1ccccc1N1CCN(C(=O)C(=O)N2CCC(C(=O)O)CC2)CC1` [Example 89, 1-{[4-(2-tert-Butylphenyl)piperazin-1-yl](oxo)acetyl}piperidine-4-carboxylic acid], for which, at human RBP4, the inhibition at 10 µM was 99%. For the same molecule, on RBP4 [2], the “RBP4 (% of initial/Control) 0 hr” value was 100.0 ± 34.2 % of initial/Control, the “RBP4 (% of initial/Control) 4 hr” value is 42.5 ± 6.0 % of initial/Control, the “RBP4 (% of initial/Control) 7 hr” value was 46.6 ± 4.3 % of initial/Control and the “RBP4 (% of initial/Control) 24 hr” value is 105.9 ± 27.6 % of initial/Control.
With `CC(C)(C)c1ccccc1N1CCN(C(=O)CC(=O)O)CC1` [Example 9, 3-[4-(2-tert-Butylphenyl)piperazin-1-yl]-3-oxopropanoic acid], the IC50 at human RBP4 was found to be 54 nM. In addition, on RBP4 [1], the “RBP4 (% of initial/Control) 0 hr” value was 100.0 ± 8.5 % of initial/Control, the “RBP4 (% of initial/Control) 4 hr” value is 49.6 ± 1.3 % of initial/Control, the “RBP4 (% of initial/Control) 7 hr” value was 49.2 ± 1.9 % of initial/Control and the “RBP4 (% of initial/Control) 24 hr” value is 114.3 ± 6.0 % of initial/Control.
Regarding `CC(C)(C)c1ccccc1N1CCN(C(=O)Cc2nnn[nH]2)CC1` [Example 58, 1-(4-(2-tert-Butylphenyl)piperazin-1-yl)-2-(1H-tetrazol-5-yl)ethanone], the half-inhibitory concentration (IC50) on human RBP4 was 300 nM. In addition, on RBP4 [1], the “RBP4 (% of initial/Control) 0 hr” value was 100.0 ± 8.7 % of initial/Control, the “RBP4 (% of initial/Control) 4 hr” value is on record as 76.2 ± 11 % of initial/Control, the “RBP4 (% of initial/Control) 7 hr” value is given as 89.1 ± 15.4 % of initial/Control and the “RBP4 (% of initial/Control) 24 hr” value is listed as 97.9 ± 10.4 % of initial/Control.
In the case of `CC(C)(C)c1ccccc1N1CCN(C(=O)C(=O)NCC(=O)O)CC1` [Example 87, N-{[4-(2-tert-Butylphenyl)piperazin-1-yl](oxo)acetyl}glycine], the inhibition at 10 µM at human RBP4 amounted to 100%. Moreover, on RBP4 [2], the “RBP4 (% of initial/Control) 0 hr” value is reported as 100.0 ± 13.6 % of initial/Control, the “RBP4 (% of initial/Control) 4 hr” value was 36.6 ± 1.0 % of initial/Control, the “RBP4 (% of initial/Control) 7 hr” value was 38.1 ± 1.3 % of initial/Control and the “RBP4 (% of initial/Control) 24 hr” value was 80.3 ± 18.4 % of initial/Control.
As for `CC(C)(C)c1ccccc1N1CCN(C(=O)C2(C(=O)O)CC2)CC1` [Example 71, 1-{[4-(2-tert-Butylphenyl)piperazin-1-yl]carbonyl}cyclopropanecarboxylic acid], at human RBP4, the inhibition at 10 µM stood at 100% and the IC50 was 150 nM. In addition, at RBP4 [2], the “RBP4 (% of initial/Control) 0 hr” value was 100.0 ± 17.1 % of initial/Control, the “RBP4 (% of initial/Control) 4 hr” value is given as 51.2 ± 1.0 % of initial/Control, the “RBP4 (% of initial/Control) 7 hr” value is on record as 56.7 ± 2.4 % of initial/Control and the “RBP4 (% of initial/Control) 24 hr” value is recorded as 120.9 ± 9.0 % of initial/Control.
